The values below come from ChEMBL document CHEMBL1125004, “Chemistry and pharmacology of the non-benzodiazepine anxiolytic enciprazine and related compounds” (1990).

Format in all cases: functional
The species named for test [1] is Mus musculus. Kind of test: Effect on hexobarbital induced sleep was determined in hexobarbital potentiation test; Range (172.3-227.4).
The species named for test [2] is Mus musculus. Kind of test: Ataxic activity in mice by rotarod test; Range (86.2-116.6). On the technique in general: In the rotarod test animals must keep their balance on a rotating rod.
Test [3] deals with Mus musculus. Kind of test: Antiaggressive anxiolytic activity in the electroshock-induced fighting test in mice (po); Range (0.58-2.63).
Test [4] is described as follows: Ratio of ED50 (rotarod) to that of ED50 (fighting).
Test [5] in a line: Ratio of ED50 (hexobarbital) to that of ED50 (fighting).
Test [6] has as its system Mus musculus. Kind of test: Antiaggressive anxiolytic activity in the electroshock-induced fighting test in mice (po); Range (9.6-16.7).
Test [7] concerns Mus musculus. As to the kind of experiment: Antiaggressive anxiolytic activity in the electroshock-induced fighting test in mice (po); Range (9.7-19.3).
Test [8] has as its system Mus musculus. Kind of test: Antiaggressive anxiolytic activity in the electroshock-induced fighting test in mice (po); Range (14.7-24.8).
For test [9], the species on record is Mus musculus. As to the kind of experiment: Ataxic activity in mice by rotarod test; Range (89.6-160.6).
Test [10] relates to Mus musculus. Kind of test: Effect on hexobarbital induced sleep was determined in hexobarbital potentiation test (po); Range (36.0-59.6).
The next test concerns Rattus norvegicus. Kind of test: Antiaggressive anxiolytic activity in the hexagonal maze test in rat after ip administration of 0.3 mg/kg. The settings on record: route intraperitoneal.
Test [11] concerns Mus musculus. As to the kind of experiment: Antiaggressive anxiolytic activity in the electroshock-induced fighting test in mice (po); Range (0.9-1.8).
For test [12], the species on record is Mus musculus. As to the kind of experiment: Effect on alcohol induced sleep was determined in ethanol potentiation test; Range (26.6-77.9).

As to `COc1cc(OCC(O)CN2CCN(c3ccccc3O)CC2)cc(OC)c1OC` (stereo not drawn), the values for the ED50 in the test filed under Mus musculus [1], in the test listed under Mus musculus [2] and with Mus musculus [3] were 200 mg/kg, 100 mg/kg and 1.3 mg/kg, respectively. Also, the Therapeutic index in [4] stood at 77; in test [5], 154.
Regarding `COc1cc(OCC(O)CN2CCN(c3ccc(C)c(C)c3)CC2)cc(OC)c1OC.Cl` (stereo not drawn), the median effective dose (ED50) (in general, the dose that gives a 50% effect, or the effect in half of the subjects) in the test with Mus musculus [6] was found to be 13 mg/kg.
`COc1cc(OCC(O)CN2CCN(c3ccccc3SC)CC2)cc(OC)c1OC.Cl` (stereo not drawn): the 50% effect level with Mus musculus [7] (ED50) was put at a dose of 14 mg/kg.
In turn, `CCOc1ccccc1N1CCN(CC(O)COc2cc(OC)c(OC)c(OC)c2)CC1.Cl` (stereo not drawn) showed a 50% effective dose (ED50) with Mus musculus [8] of 19 mg/kg.
In the case of `COc1ccccc1N1CCN(CC(O)COc2cc(OC)c(OC)c(OC)c2)CC1.Cl` (stereo not drawn), the ED50 in the test filed under Mus musculus [9] is 120 mg/kg; in the test with Mus musculus [10] it was 46.4 mg/kg; in the test on Mus musculus [11] it was 1.4 mg/kg; in the test listed under Mus musculus [12] it was 45.5 mg/kg. The same compound yielded a Prolongation with Rattus norvegicus of 3.2%.
